Reference: patent publication US8648076B2, “Cysteine protease inhibitors and their therapeutic applications” (Hybrigenics SA, priority 2005, dated 2014)
pIC50: −log10 of the molar value. Where two headings read alike, the source gives them in different places.

Experiments:
Caspase 3 = biological target: T1, Caspase 3 (Homo sapiens, UniProt P42574); assay: Caspase 3 activity assay; assay type: biochemical
T1 sequence (P42574 29-175 limits assumed): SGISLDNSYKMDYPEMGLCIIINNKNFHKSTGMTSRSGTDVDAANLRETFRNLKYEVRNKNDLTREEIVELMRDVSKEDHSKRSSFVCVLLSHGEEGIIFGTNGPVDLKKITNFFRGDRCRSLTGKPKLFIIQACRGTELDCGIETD
T1 sequence (P42574 176-277 limits assumed): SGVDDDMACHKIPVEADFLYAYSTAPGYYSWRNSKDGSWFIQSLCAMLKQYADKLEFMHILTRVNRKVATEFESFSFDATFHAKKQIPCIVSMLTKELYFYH
Method: Compounds stocks (100 mM) were stored at −20° C. in DMSO. […] Reactions were performed as duplicates in Black LJL 96 well plates (HE microplates; Molecular Devices; 20 μl final reaction volume). The substrate concentration for caspase 3 specificity assay was 500 nM (Ac-DEVD-AMC; Promega). […] The concentrations were determined in order to perform specificity assays under initial velocities at fixed substrate concentration. Compounds were pre-incubated with enzymes for 30 minutes at 25° C. Reactions were initiated by addition of substrate to the plates containing the enzymes (+/−compounds) diluted in assay buffer. Reactions were incubated for 60 minutes at 37° C. Reactions were stopped by adding acetic acid (100 mM final). Readings were performed on a Pherastar Fluorescent Reader (BMG). δ Emission 380 nm; δ Excitation=460 nm. Data (mean values+/− standard deviation) were analyzed as % of control (no compound) and plotted as percentage versus the Log of the compound concentration using GraphPad (Prism). Data were fitted to a sigmoidal model (variable slope).

USP8 = biological target: T2, USP8 (Homo sapiens, UniProt P40818); assay: USP8 activity assay; assay type: biochemical; settings: 400 nM Ub-AMC, pH8.8, 30 min pre-incubation at 25° C., 60 min at 37° C.; sigmoidal fit; AF: Autofluorescent; read-out: USP 8 (inhibition of cysteine protease activity)
T2 sequence (P40818 1-1118): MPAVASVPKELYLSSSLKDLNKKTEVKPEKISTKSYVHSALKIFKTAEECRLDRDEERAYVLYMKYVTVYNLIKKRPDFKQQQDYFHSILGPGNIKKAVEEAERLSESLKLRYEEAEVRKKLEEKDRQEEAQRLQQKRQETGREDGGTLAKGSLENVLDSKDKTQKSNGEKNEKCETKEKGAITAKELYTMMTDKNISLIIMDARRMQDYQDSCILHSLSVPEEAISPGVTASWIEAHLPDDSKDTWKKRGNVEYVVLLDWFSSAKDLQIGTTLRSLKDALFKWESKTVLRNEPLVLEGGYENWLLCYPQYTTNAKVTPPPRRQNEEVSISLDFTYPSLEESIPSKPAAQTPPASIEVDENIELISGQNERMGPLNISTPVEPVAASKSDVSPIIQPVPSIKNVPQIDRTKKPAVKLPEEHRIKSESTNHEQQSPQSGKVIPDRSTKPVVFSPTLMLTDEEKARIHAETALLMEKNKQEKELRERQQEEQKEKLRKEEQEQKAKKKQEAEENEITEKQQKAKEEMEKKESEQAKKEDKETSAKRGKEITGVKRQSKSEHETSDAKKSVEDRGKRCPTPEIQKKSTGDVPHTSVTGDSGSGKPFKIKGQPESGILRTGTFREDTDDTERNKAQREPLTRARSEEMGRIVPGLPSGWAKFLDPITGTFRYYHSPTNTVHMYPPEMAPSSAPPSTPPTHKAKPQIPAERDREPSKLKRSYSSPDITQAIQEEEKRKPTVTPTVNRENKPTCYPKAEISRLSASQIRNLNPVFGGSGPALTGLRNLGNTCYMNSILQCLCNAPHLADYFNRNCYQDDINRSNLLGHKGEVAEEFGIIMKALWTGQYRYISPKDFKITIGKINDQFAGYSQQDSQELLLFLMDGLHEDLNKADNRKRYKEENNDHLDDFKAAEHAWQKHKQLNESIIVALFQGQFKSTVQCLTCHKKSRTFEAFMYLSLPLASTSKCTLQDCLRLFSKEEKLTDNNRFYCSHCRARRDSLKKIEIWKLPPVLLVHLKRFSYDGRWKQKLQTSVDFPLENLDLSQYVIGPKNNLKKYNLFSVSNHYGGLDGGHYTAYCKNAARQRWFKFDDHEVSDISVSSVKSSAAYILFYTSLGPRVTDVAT

[1] = 500 nM Ac-DEVD-AMC, 3.2 nM enzyme, 30 min pre-incubation at 25° C., 60 min at 37° C., sigmoidal fit, AF: Autofluorescent, read-out: Casp3 (inhibition of cysteine protease activity)

Compound `CON=C1c2ccccc2-c2nc(C(N)=O)c(C#N)nc21` [Example 34d, 2-Cyano-9-methoxyimino-9H-indeno[1,2-b]pyrazine-3-carboxylic acid amide] has a pIC50 (Caspase 3; [1]) of 6.88 and a pIC50 (USP8) of 7.54.

For `N#Cc1nc2c(nc1O)-c1ccc(Cl)cc1C2=O` [Example 42, 7-chloro-3-hydroxy-9-oxo-9H-indeno[1,2-b]pyrazine-2-carbonitrile], the pIC50 (Caspase 3; [1]) was < 4.00 and the pIC50 (USP8) was < 4.00.

In the case of `N#Cc1nc2c(nc1N)-c1ccccc1C2=O` [Example 7, 3-amino-9-oxo-9H-indeno[1,2-b]pyrazine-2-carbonitrile], the pIC50 (Caspase 3; [1]) was < 4.00 and the pIC50 (USP8) was 4.32.

With `N#Cc1nc2c(nc1C#N)-c1cc(Cl)c(Cl)cc1C2=O` [Example 31, 6,7-dichloro-9-oxo-9H-indeno[1,2-b]pyrazine-2,3-dicarbonitrile] the pIC50 (Caspase 3; [1]) was 6.80 and the pIC50 (USP8) was 7.12.

`N#Cc1nc2c(nc1C#N)-c1ccc(O)cc1C2=O` [Example 17j, 7-Hydroxy-9-oxo-9H-indeno[1,2-b]pyrazine-2,3-dicarbonitrile] was tested, and the pIC50 (Caspase 3; [1]) was 4.33 and the pIC50 (USP8) was < 4.00.

For `COc1ccc2c(c1)C(=O)c1nc(C#N)c(C#N)nc1-2` [Example 17i, 7-Methoxy-9-oxo-9H-indeno[1,2-b]pyrazine-2,3-dicarbonitrile], the pIC50 (Caspase 3; [1]) was 5.70 and the pIC50 (USP8) was 5.68.

In the case of `COc1ccc2c(c1OC)C(=O)c1nc(C#N)c(C#N)nc1-2` [Example 17d, 7,8-Dimethoxy-9-oxo-9H-indeno[1,2-b]pyrazine-2,3-dicarbonitrile], the pIC50 (Caspase 3; [1]) was 5.74 and the pIC50 (USP8) was 6.15.

`COc1cc2c(cc1OC)-c1nc(C#N)c(C#N)nc1C2=O` [Example 17b, 6,7-Dimethoxy-9-oxo-9H-indeno[1,2-b]pyrazine-2,3-dicarbonitrile] was tested, and the pIC50 (Caspase 3; [1]) was 4.29 and the pIC50 (USP8) was 5.60.

For `COCCOc1nc2c(nc1C#N)C(=O)c1ccccc1-2` [Example 5, 3-(2-methoxy-ethoxy)-9-oxo-9H-indeno[1,2-b]pyrazine-2-carbonitrile], the pIC50 (Caspase 3; [1]) was < 4.00 and the pIC50 (USP8) was 4.28.

`COc1ccc2c(c1)-c1nc(C#N)c(C#N)nc1C2=O` [Example 17a, 6-Methoxy-9-oxo-9H-indeno[1,2-b]pyrazine-2,3-dicarbonitrile] showed a pIC50 (Caspase 3; [1]) of 5.00 and a pIC50 (USP8) of 5.40.

Work on `N#Cc1nc2c(nc1C#N)-c1ccc(Cl)cc1C2=O` [Example 17g, 7-Chloro-9-oxo-9H-indeno[1,2-b]pyrazine-2,3-dicarbonitrile] yielded a pIC50 (Caspase 3; [1]) of 6.54 and a pIC50 (USP8) of 7.02.

With `CCc1ccc2c(c1)-c1nc(C#N)c(C#N)nc1C2=O` [Example 32, 6-ethyl-9-oxo-9H-indeno[1,2-b]pyrazine-2,3-dicarbonitrile] the pIC50 (Caspase 3; [1]) was 5.44 and the pIC50 (USP8) was 6.95.

`N#Cc1nc2c(nc1C#N)-c1ccccc1C2=NO` [Example 12, 9-[hydroxyimino]-9H-indeno[1,2-b]pyrazine-2,3-dicarbonitrile] was tested, and the pIC50 (Caspase 3; [1]) was 5.25 and the pIC50 (USP8) was 5.15.

With `COc1ccc(OC)c2c1C(=O)c1nc(C#N)c(C#N)nc1-2` [Example 17f, 5,8-Dimethoxy-9-oxo-9H-indeno[1,2-b]pyrazine-2,3-dicarbonitrile] the pIC50 (Caspase 3; [1]) was 5.70 and the pIC50 (USP8) was 6.09.

For `N#Cc1nc2c(nc1C(N)=O)-c1ccccc1/C2=N\O` [Example 11, 2-cyano-9-[hydroxyimino]-9H-indeno[1,2-b]pyrazine-3-carboxylic acid amide], the pIC50 (Caspase 3; [1]) was 5.64 and the pIC50 (USP8) was 6.14.

With `N#Cc1nc2c(nc1C#N)-c1ccccc1C2=O` [Example 1, 9-oxo-9H-indeno[1,2-b]pyrazine-2,3-dicarbonitrile] the pIC50 (Caspase 3; [1]) was 6.16 and the pIC50 (USP8) was 6.54.

For `N#Cc1nc2c(nc1C#N)-c1ccc(Cl)cc1C2=NNC(N)=O` [Example 43, 9-[(aminocarbonyl)hydrazono]-7-chloro-9H-indeno[1,2-b]pyrazine-2,3-dicarbonitrile], the pIC50 (Caspase 3; [1]) was 4.19 and the pIC50 (USP8) was 6.09.

`Cc1ccc2c(c1)-c1nc(C#N)c(C#N)nc1C2=O` [Example 17e, 6-Methyl-9-oxo-9H-indeno[1,2-b]pyrazine-2,3-dicarbonitrile] gave a pIC50 (Caspase 3; [1]) of 5.48 and a pIC50 (USP8) of 6.03.

`Cc1c(F)ccc2c1C(=O)c1nc(C#N)c(C#N)nc1-2` [Example 30, 7-Fluoro-8-methyl-9-oxo-9H-indeno[1,2-b]pyrazine-2,3-dicarbonitrile] gave a pIC50 (Caspase 3; [1]) of 5.97 and a pIC50 (USP8) of 6.50.

With `N#Cc1nc2c(nc1C(N)=O)-c1ccccc1/C2=N\OCC(=O)O` [Example 38, (3-carbamoyl-2-cyano-indeno[1,2-b]pyrazin-9-ylideneaminooxy)-acetic acid] the pIC50 (Caspase 3) was 5.40 and the pIC50 (USP8) was 6.57.

Compound `N#Cc1nc2c(nc1C(N)=O)-c1ccccc1C2=O` [Example 36, 2-cyano-9-oxo-9H-indeno[1,2-b]pyrazine-3-carboxylic acid amide] has a pIC50 (Caspase 3; [1]) of 6.40 and a pIC50 (USP8) of 6.69.
